Read-outs that look alike come from different tables or passages of the source. One block for each compound: values may come before it.
Key:
Solubility properties = assay type: physicochemical; conditions: for Solubility in ethyl alcohol: ethyl alcohol / ethanol / alcohol; for Solubility in water: in words; for Solubility in alcohol of 95° GL: alcohol / ethanol of 95° GL
carrageenin edema = test: Carrageenin edema test in rats (antiinflammatory); assay type: in vivo; conditions: for change in vivo at 300 mg/kg / change in vivo at 200 mg/kg / change in vivo at 75 mg/kg: Rattus norvegicus; for change in vivo at 300 mg/kg: 300 mg/kg oral; for change in vivo at 200 mg/kg: 200 mg/kg oral; for % var. / action (variation of paw volume increase vs controls) / change in vivo at 75 mg/kg: 75 mg/kg oral
Experimental: The antiinflammatory properties were shown by the carrageenin edema test in rats, the products having been administered orally 1 hour before the intrapodal injection of 0.05 ml of a 2% suspension of carrageenin; the volume of the rat's paw was measured by plethysmoscopy 3, 4 and 6 hours afterwards.
The experiment concerned for each lot […]; one lot of animals receiving only the vehicle (2 ml/100 g of Tween + water) which served for the administration of the products, constituted the control lot. The following table sets forth the results obtained: […]

[1] = system: writhings induced by acetic acid; test: Writhing test, acetic acid (analgetic); assay type: in vivo, male mouse; conditions: 200 mg/kg by mouth, t + 60 to t + 70 min
Experimental: The administration of the compounds is effected by mouth at the time t. […] The determination of the writhings is effected from t + 60 min. to t + 70 min. The vehicle used for the administration of the products is a 5% solution of Tween 80 in 0.9% NaCl which will serve as control.

[2] = Acute toxicity in mice, oral LD50 (method of Miller & Tainter); conditions: mouse, in vivo, mortality determined 48 hours after administration
Experimental: The chemical compounds previously described were submitted to toxicity tests. It was determined in mice by oral administration and was calculated in accordance with the method of MILLER & TAINTER. It is generally low and greater than 1000 mg/kg.

[3] = system: writhings induced by phenylbenzoquinone; test: Writhing test, phenylbenzoquinone (analgetic); assay type: in vivo, mice; conditions: 200 mg/kg oral, t + 35 to t + 40 min
Experimental: The analgetic properties of certain compounds were shown in mice by the "writhing test" method, that is to say with reference to the writhings induced by phenylbenzoquinone. The administration of the product is effected orally at time t; it is followed by the intraperitoneal injection of 0.2% phenylbenzoquinone at t + 30 min. The determination of the writhings is effected from t + 35 min. to t + 40 min. One lot of animals receiving only the vehicle (5% Tween 80 in 0.9% NaCl) serves as control.

[4] = sodium salt, water, read-out: Solubility in form of sodium salt
[5] = + 3 hrs, read-out: % increase in volume of the paw, mean (m)
[6] = + 4 hrs, read-out: % increase in volume of the paw, mean (m)
[7] = + 6 hrs, read-out: % increase in volume of the paw, mean (m)
[8] = + 6 hrs, read-out: Action (variation of paw volume increase vs controls)
[9] = read-out: % mean variation of the volume of the paw at 3, 4 and 6 hrs
[10] = + 3 hrs, read-out: Action (variation of paw volume increase vs controls)
[11] = + 4 hrs, read-out: Action (variation of paw volume increase vs controls)
[12] = 3 hrs, read-out: % increase in volume of the paw, mean (m)
[13] = 4 hrs, read-out: % increase in volume of the paw, mean (m)
[14] = 6 hrs, read-out: % increase in volume of the paw, mean (m)

SMILES: C=C(CC(=O)c1ccc(Oc2ccccc2)cc1)C(=O)O [Example 4, 2-methylene 4-oxo 4-(paraphenoxyphenyl) butyric acid]
Solubility in NN dimethyl formamide (Solubility properties; NN dimethyl formamide): 50%
Solubility in acetone (Solubility properties): 10%
Solubility in chloroform (Solubility properties; chloroform): 5%
Solubility in ethyl alcohol (Solubility properties): 3%
Solubility in propylene glycol (Solubility properties): 1%
solubility (Solubility properties; [4]): 100000 µg/mL
Solubility in water (Solubility properties; water): insoluble

SMILES: C=C(CC(=O)c1ccc(-c2ccc(Br)cc2)cc1)C(=O)O [Example 5, 2-methylene 4-oxo 4-(phenyl-4'-parabromophenyl) butyric acid]
Solubility in N-methyl pyrrolidone (Solubility properties): 25%
Solubility in ethyl alcohol (Solubility properties): 1%
Solubility in water (Solubility properties; water): insoluble

SMILES: C=C(CC(=O)c1ccccc1)C(=O)O [F 1350, 2-methylene 4-oxo 4-phenyl butyric acid]
Solubility in acetone (Solubility properties): 6%
Solubility in NN-dimethyl acetamide (Solubility properties): 10%
Solubility in dimethyl sulfoxide (Solubility properties; dimethyl sulfoxide): 25%
Solubility in ethyl alcohol (Solubility properties): 3%
solubility (Solubility properties; [4]): 10000 µg/mL
Solubility in water (Solubility properties; water): insoluble
change in vivo at 300 mg/kg (carrageenin edema; [5]): 34.3%
change in vivo at 300 mg/kg (carrageenin edema; [6]): 39.7%
change in vivo at 300 mg/kg (carrageenin edema; [7]): 46.1%
change in vivo at 300 mg/kg (carrageenin edema; [8]): 0%
change in vivo at 300 mg/kg (carrageenin edema; [9]): -17%
% Decrease (of writhings) [1]: 42,3%
Mean No. of Writhings [1]: 25,7

SMILES: CC(=CC(=O)c1ccccc1)C(=O)O [F 1351, 2-methyl 4-oxo 4-phenyl 2-butenoic acid]
Solubility in ethyl alcohol (Solubility properties): 5%
Solubility in propylene glycol (Solubility properties): 3%
solubility (Solubility properties; [4]): 10000 µg/mL
change in vivo at 300 mg/kg (carrageenin edema; [5]): 29.7%
change in vivo at 300 mg/kg (carrageenin edema; [10]): -41%
change in vivo at 300 mg/kg (carrageenin edema; [6]): 33.8%
change in vivo at 300 mg/kg (carrageenin edema; [11]): -32%
change in vivo at 300 mg/kg (carrageenin edema; [7]): 40.6%
change in vivo at 300 mg/kg (carrageenin edema; [8]): -12%
% Decrease (of writhings) [1]: 48,2%
Mean No. of Writhings [1]: 28,0

SMILES: C=C(CC(=O)c1ccc(Cl)cc1)C(=O)O [F 1352, 2-methylene 4-oxo 4-(parachlorophenyl) butyric acid]
Solubility in N-methyl pyrrolidone (Solubility properties): 25%
Solubility in ethyl alcohol (Solubility properties): 3%
solubility (Solubility properties; [4]): 10000 µg/mL
Solubility in water (Solubility properties; water): insoluble
change in vivo at 300 mg/kg (carrageenin edema; [5]): 35.8%
change in vivo at 300 mg/kg (carrageenin edema; [10]): -28%
change in vivo at 300 mg/kg (carrageenin edema; [6]): 37.9%
change in vivo at 300 mg/kg (carrageenin edema; [11]): -24%
change in vivo at 300 mg/kg (carrageenin edema; [7]): 37.3%
change in vivo at 300 mg/kg (carrageenin edema; [8]): -19%
change in vivo at 300 mg/kg (carrageenin edema; [9]): -23.6%
% Decrease (of writhings) [1]: 40,3%
Mean No. of Writhings [1]: 26,6

SMILES: C=C(CC(=O)c1ccc(C2CCCCC2)cc1)C(=O)O [F 1353, 2-methylene 4-oxo 4-(paracyclohexylphenyl) butyric acid]
Solubility in NN-dimethyl acetamide (Solubility properties): 20%
Solubility in ethyl alcohol (Solubility properties): 3%
Solubility in propylene glycol (Solubility properties): 1%
solubility (Solubility properties; water with sodium bicarbonate, water + sodium bicarbonate, read-out: Solubility in water by addition of sodium bicarbonate): 10000 µg/mL
Solubility in water (Solubility properties; water): insoluble

SMILES: C=C(CC(=O)c1ccc(-c2ccc(Br)cc2)cc1)C(=O)O [F 1378]
change in vivo at 300 mg/kg (carrageenin edema; [5]): 45.4%
change in vivo at 300 mg/kg (carrageenin edema; [10]): -26%
change in vivo at 300 mg/kg (carrageenin edema; [6]): 47.9%
change in vivo at 300 mg/kg (carrageenin edema; [11]): -21%
change in vivo at 300 mg/kg (carrageenin edema; [7]): 52.4%
change in vivo at 300 mg/kg (carrageenin edema; [8]): -8%
change in vivo at 300 mg/kg (carrageenin edema; [9]): -18.3%

SMILES: C=C(CC(=O)c1ccc(Oc2ccccc2)cc1)C(=O)O [F 1380]
change in vivo at 200 mg/kg (carrageenin edema; [5]): 50.3%
change in vivo at 200 mg/kg (carrageenin edema; [10]): -18%
change in vivo at 200 mg/kg (carrageenin edema; [6]): 52.8%
change in vivo at 200 mg/kg (carrageenin edema; [11]): -12%
change in vivo at 200 mg/kg (carrageenin edema; [7]): 55.6%
change in vivo at 200 mg/kg (carrageenin edema; [8]): -3%
change in vivo at 200 mg/kg (carrageenin edema; [9]): -11%

SMILES: C=C(CC(=O)c1ccc(-c2ccccc2Cl)cc1)C(=O)OC [F 1440, 2-methylene 4-oxo 4-(4'-o-chlorophenylphenyl) methyl butyrate]
Solubility in N-methyl pyrrolidone (Solubility properties): 60%
Solubility in NN-dimethyl acetamide (Solubility properties): 60%
Solubility in water (Solubility properties; water): insoluble
% var. / action (variation of paw volume increase vs controls) (carrageenin edema; 3 hrs): -22%
% var. / action (variation of paw volume increase vs controls) (carrageenin edema; 4 hrs): -15%
% var. / action (variation of paw volume increase vs controls) (carrageenin edema; 6 hrs): -9%
change in vivo at 75 mg/kg (carrageenin edema; [12]): 47%
change in vivo at 75 mg/kg (carrageenin edema; [13]): 50.5%
change in vivo at 75 mg/kg (carrageenin edema; [14]): 51%
change in vivo at 75 mg/kg (carrageenin edema; [9]): -15%
LD50 at 48 h [2]: > 1000 mg/kg

SMILES: CC(=CC(=O)c1ccccc1)C(=O)Nc1cccc(C(F)(F)F)c1 [F 1442, 2-methyl 4-oxo 4-phenyl N(m-trifluoromethylphenyl) 2-butenamide]
Solubility in N-methyl pyrrolidone (Solubility properties): 40%
Solubility in alcohol of 95° GL (Solubility properties): 30%
Solubility in NN-dimethyl acetamide (Solubility properties): 40%
Solubility in water (Solubility properties; water): insoluble
% var. / action (variation of paw volume increase vs controls) (carrageenin edema; 3 hrs): -16%
% var. / action (variation of paw volume increase vs controls) (carrageenin edema; 4 hrs): -14%
% var. / action (variation of paw volume increase vs controls) (carrageenin edema; 6 hrs): -11%
change in vivo at 75 mg/kg (carrageenin edema; [12]): 50%
change in vivo at 75 mg/kg (carrageenin edema; [13]): 51%
change in vivo at 75 mg/kg (carrageenin edema; [14]): 49%
change in vivo at 75 mg/kg (carrageenin edema; [9]): -13%
LD50 at 48 h [2]: > 1000 mg/kg

SMILES: C=C(CC(=O)c1ccc(-c2ccccc2Cl)cc1)C(=O)O [F 1496, 2-methylene 4-oxo 4-(4'-orthochlorophenylphenyl) arginine butyrate]
Solubility in water (Solubility properties; water): soluble

SMILES: CC(=O)Oc1ccccc1C(=O)O [acetylsalicyclic acid, reference compound]
% Decrease (of writhings) [1]: 36,6%
Mean No. of Writhings [1]: 24,7

More lines, main results first:

Solubility in ethyl alcohol (Solubility properties): 6%
Solubility in water (Solubility properties; water): insoluble
SMILES: CC(=CC(=O)c1ccc(-c2ccccc2Cl)cc1)C(=O)Nc1cccc(C(F)(F)F)c1 [F 1441]

Solubility in N-methyl pyrrolidone (Solubility properties): 5%
Solubility in alcohol of 95° GL (Solubility properties): 1.5%
Solubility in NN-dimethyl acetamide (Solubility properties): 5%
Solubility in water (Solubility properties; water): insoluble
SMILES: CC(=CC(=O)c1ccccc1)C(=O)N1CCOCC1 [F 1443, N-(4-phenyl 4-oxo 2-methyl 2-butenoyl)morpholine]

Solubility in N-methyl pyrrolidone (Solubility properties): 20%
Solubility in NN-dimethyl acetamide (Solubility properties): 25%
Solubility in ethyl alcohol (Solubility properties): 1%
Solubility in water (Solubility properties; water): insoluble
SMILES: CC(=CC(=O)c1ccc(-c2ccccc2)cc1)C(=O)O [F 1448, 2-methyl 4-oxo 4-(4'-phenylphenyl) 2-butenoic acid]

Solubility in N-methyl pyrrolidone (Solubility properties): 30%
Solubility in absolute alcohol (Solubility properties; absolute alcohol): 1%
Solubility in NN-dimethyl acetamide (Solubility properties): 30%
Solubility in water (Solubility properties; water): insoluble
SMILES: C=C(CC(=O)c1ccc(-c2ccc(Cl)cc2)cc1)C(=O)O [F 1449, 2-methylene 4-oxo 4-(4' p-chlorophenylphenyl) butyric acid]
% var. / action (variation of paw volume increase vs controls) (carrageenin edema; 3 hrs): -29%
% var. / action (variation of paw volume increase vs controls) (carrageenin edema; 4 hrs): -24%
% var. / action (variation of paw volume increase vs controls) (carrageenin edema; 6 hrs): -20%
change in vivo at 75 mg/kg (carrageenin edema; [12]): 42%
change in vivo at 75 mg/kg (carrageenin edema; [13]): 45%
change in vivo at 75 mg/kg (carrageenin edema; [14]): 44.5%
change in vivo at 75 mg/kg (carrageenin edema; [9]): -24%
% Decrease (of writhings) [3]: 17%
Mean No. of Writhings [3]: 27,4

Solubility in N-methyl pyrrolidone (Solubility properties): 50%
Solubility in NN-dimethyl acetamide (Solubility properties): 50%
Solubility in ethyl alcohol (Solubility properties): 3%
Solubility in water (Solubility properties; water): insoluble
SMILES: C=C(CC(=O)c1cccc2ccccc12)C(=O)O [F 1494, 2-methylene 4-oxo 4-naphthalene butanoic acid]

Solubility in N-methyl pyrrolidone (Solubility properties): 50%
Solubility in alcohol of 95° GL (Solubility properties): 8%
Solubility in NN-dimethyl acetamide (Solubility properties): 50%
Solubility in water (Solubility properties; water): insoluble
SMILES: C=C(CC(=O)c1ccc2c(c1)CCCC2)C(=O)O [F 1495, 2-methylene 4-oxo 4-(1'-2'-3'-4'-tetrahydronaphthalene) butyric acid]

Solubility in alcohol of 95° GL (Solubility properties): 6%
Solubility in NN-dimethyl acetamide (Solubility properties): 30%
Solubility in water (Solubility properties; water): insoluble
SMILES: C=C(CC(=O)c1ccc(OC)c(-c2ccccc2)c1)C(=O)O [F 1497, 2-methylene 4-oxo 4-(3' phenyl, 4'-methoxyphenyl) butyric acid]

Reference: US4008323A, “Method of reducing cholesterol using certain aromatic keto acids” (Pierre Fabre S.A., priority 1974, dated 1977)
